The target of experiment [1] is Acyl-homoserine lactone acylase PvdQ (Pseudomonas aeruginosa (strain LESB58), UniProt Q9I194). Kind of experiment: PvdQ acylase enzyme activity blockers – biochemical, fluorescence, plate reader and imaging, cherry-picks, dose response (AID 493231).
For experiment [2], the target named is T1, Oxysterols receptor LXR-beta (Homo sapiens, UniProt P55055).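 Further: Cell-based luminescence dose-response assay of agonist activity at LXR, run as a confirmatory counterscreen to a daf-12 agonist screen; HEK293 cells with Gal4-LXR fusion and GAL4-driven luciferase reporter; agonist potency from rising luciferase signal of a Gal4-LXR reporter.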
T1 sequence (P55055 whole entry): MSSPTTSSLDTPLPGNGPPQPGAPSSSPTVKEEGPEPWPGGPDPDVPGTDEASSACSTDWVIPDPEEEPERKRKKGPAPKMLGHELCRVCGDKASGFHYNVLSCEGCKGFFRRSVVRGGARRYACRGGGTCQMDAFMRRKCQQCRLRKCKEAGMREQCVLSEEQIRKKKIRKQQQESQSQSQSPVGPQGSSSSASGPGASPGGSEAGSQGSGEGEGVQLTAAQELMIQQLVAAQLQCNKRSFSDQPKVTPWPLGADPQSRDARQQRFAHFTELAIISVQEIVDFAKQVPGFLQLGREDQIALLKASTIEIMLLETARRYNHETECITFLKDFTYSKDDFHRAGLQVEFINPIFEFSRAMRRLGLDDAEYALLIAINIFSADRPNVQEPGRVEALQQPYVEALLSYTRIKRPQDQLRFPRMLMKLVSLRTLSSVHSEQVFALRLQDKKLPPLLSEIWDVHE
It is filed as functional, cell-based.

The nature of experiment [3]: blockade of melanocortin 4 receptor signaling – cell-based, plate reader, cherry pick, counter-screen for LGR2 antagonist project, dose response (AID 743444).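 Further: transfected HEK 293 cells stimulated with alpha-MSH peptide; potency of inhibitors of the alpha-MSH evoked signal.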 It is filed as functional. In general terms: Counterscreens check selectivity or assay interference.
The nature of experiment [4]: Luminescence-based counterscreen assay for KLF5 inhibitors: dose response cell-based high throughput screening assay to identify cytotoxic compounds using the IEC-6 intestinal epithelial cell line. [Related pubchem assays: 1700 (Primary screen.), 1834 (Confirmation screen.), 1858 (Summary AID.), 1905 (Counterscreen.)]. It is filed as functional.
Experiment [5] in a line: toxicity toward HepG2 liver cells – cell-based, plate reader, cherry-pick, antagonist series, cytotoxicity control, dose response (AID 743416). It is filed as functional.
Experiment [6] is described as follows: A549 cell cytotoxicity, dose response, cytotoxicity control, plate reader, cherry-pick, antagonist series (AID 743412). It counts as functional, cell-based.
The nature of experiment [7]: blockers of bursicon-stimulated LGR2 cAMP reporter – cell-based, HEK293, CRE-luciferase reporter, cherry pick, set 2, dose response (AID 743343).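 Further: transfected cells were stimulated with diluted bursicon conditioned medium after compound addition.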 It is filed as functional.
The target in experiment [8] is Mothers against decapentaplegic homolog 3 (Homo sapiens, UniProt P84022). Kind of experiment: blockers of Smad3 complex formation in lysate – cell lysate, secondary confirmation, chemiluminescent ELISA, HEK293 lysate, dose response (AID 1058). It counts as functional.
Chain of Mothers against decapentaplegic homolog 3 (P84022 whole entry): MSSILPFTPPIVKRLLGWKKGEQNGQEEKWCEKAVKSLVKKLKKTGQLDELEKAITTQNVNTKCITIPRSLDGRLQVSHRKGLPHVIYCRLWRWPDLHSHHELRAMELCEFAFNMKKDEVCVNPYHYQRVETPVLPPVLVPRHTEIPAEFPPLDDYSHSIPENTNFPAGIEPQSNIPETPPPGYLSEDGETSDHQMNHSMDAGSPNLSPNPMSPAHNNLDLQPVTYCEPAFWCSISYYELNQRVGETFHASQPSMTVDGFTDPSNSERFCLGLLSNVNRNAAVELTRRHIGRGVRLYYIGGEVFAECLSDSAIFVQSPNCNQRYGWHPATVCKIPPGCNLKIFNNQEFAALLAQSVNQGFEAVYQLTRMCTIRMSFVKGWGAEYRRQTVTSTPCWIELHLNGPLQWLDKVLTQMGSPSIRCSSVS
Experiment [9] addresses G2/mitotic-specific cyclin-B1 (Homo sapiens, UniProt P14635). Kind of experiment: HeLa cell cycle G2/M accumulation – FACS, mechanism study for Wee1 degradation inhibitor project, late-stage follow-up, panel member Cyclin B Degradation (AID 2088).
In a further experiment the target is Wee1-like protein kinase (Homo sapiens, UniProt P30291). Kind of experiment: HeLa cell cycle G2/M accumulation – FACS, mechanism study for Wee1 degradation inhibitor project, late-stage follow-up, panel member Wee1 Degradation (AID 2088).
Chain of Wee1-like protein kinase (P30291 whole entry): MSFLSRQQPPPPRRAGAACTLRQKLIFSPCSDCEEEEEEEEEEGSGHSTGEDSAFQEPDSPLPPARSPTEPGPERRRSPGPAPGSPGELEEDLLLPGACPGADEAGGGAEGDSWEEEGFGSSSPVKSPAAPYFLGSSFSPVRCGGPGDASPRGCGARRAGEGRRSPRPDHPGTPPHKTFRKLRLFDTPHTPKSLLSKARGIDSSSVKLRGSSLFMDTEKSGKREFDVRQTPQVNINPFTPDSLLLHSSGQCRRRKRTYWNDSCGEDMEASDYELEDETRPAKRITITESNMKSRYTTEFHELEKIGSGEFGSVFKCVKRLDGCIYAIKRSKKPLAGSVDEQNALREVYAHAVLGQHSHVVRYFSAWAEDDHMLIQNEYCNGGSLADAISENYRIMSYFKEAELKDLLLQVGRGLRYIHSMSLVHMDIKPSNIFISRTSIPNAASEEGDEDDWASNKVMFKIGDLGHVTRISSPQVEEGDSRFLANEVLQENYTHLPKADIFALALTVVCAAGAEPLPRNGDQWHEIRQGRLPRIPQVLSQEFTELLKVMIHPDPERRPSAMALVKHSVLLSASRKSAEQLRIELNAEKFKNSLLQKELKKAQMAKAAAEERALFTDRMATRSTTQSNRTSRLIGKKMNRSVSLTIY
For experiment [10], the target named is Cyclin-dependent kinase 5/CDK5 activator 1 (Homo sapiens, UniProt Q00535). Put plainly: blockade of human CDK5 activity – biochemical, cherry-picked samples, set 2, dose response (AID 504545).
Chain of Cyclin-dependent kinase 5/CDK5 activator 1 (Q00535 whole entry): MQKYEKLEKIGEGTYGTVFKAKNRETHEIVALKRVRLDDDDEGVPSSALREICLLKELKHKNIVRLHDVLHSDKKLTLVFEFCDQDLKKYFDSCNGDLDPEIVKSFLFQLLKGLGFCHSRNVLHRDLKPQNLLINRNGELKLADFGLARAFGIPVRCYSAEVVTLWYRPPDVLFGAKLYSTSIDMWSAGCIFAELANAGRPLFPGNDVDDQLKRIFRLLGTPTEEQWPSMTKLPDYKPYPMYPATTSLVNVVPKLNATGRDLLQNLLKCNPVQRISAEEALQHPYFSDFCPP
Chain of Cyclin-dependent kinase 5/CDK5 activator 1 (Q15078 whole entry, further chain): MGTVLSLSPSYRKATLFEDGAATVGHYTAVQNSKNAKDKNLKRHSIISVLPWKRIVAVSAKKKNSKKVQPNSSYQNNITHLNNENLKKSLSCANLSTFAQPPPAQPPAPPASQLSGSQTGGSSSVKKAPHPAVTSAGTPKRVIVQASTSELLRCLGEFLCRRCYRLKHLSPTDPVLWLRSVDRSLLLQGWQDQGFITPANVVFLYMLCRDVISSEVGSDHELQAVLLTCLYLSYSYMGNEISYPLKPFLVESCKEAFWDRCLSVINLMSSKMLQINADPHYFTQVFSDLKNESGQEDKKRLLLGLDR
Experiment [11] is described as follows: NIH3T3 cell viability loss – ATP luminescence, mouse fibroblasts, counter-screen, dose response (AID 2010).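 Further: cells exposed to compound for about 90 hours before reading.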 It counts as functional, cell-based.
The target in another experiment is Beta-galactosidase (Escherichia coli, UniProt Q8VNN2). Put plainly: detection-enzyme interference by beta-gal modulators – biochemical, E. coli enzyme, set 3, artefact control for CCR6 antagonist project, dose response (AID 504712). It is filed as functional.
Chain of Beta-galactosidase (Q8VNN2 whole entry): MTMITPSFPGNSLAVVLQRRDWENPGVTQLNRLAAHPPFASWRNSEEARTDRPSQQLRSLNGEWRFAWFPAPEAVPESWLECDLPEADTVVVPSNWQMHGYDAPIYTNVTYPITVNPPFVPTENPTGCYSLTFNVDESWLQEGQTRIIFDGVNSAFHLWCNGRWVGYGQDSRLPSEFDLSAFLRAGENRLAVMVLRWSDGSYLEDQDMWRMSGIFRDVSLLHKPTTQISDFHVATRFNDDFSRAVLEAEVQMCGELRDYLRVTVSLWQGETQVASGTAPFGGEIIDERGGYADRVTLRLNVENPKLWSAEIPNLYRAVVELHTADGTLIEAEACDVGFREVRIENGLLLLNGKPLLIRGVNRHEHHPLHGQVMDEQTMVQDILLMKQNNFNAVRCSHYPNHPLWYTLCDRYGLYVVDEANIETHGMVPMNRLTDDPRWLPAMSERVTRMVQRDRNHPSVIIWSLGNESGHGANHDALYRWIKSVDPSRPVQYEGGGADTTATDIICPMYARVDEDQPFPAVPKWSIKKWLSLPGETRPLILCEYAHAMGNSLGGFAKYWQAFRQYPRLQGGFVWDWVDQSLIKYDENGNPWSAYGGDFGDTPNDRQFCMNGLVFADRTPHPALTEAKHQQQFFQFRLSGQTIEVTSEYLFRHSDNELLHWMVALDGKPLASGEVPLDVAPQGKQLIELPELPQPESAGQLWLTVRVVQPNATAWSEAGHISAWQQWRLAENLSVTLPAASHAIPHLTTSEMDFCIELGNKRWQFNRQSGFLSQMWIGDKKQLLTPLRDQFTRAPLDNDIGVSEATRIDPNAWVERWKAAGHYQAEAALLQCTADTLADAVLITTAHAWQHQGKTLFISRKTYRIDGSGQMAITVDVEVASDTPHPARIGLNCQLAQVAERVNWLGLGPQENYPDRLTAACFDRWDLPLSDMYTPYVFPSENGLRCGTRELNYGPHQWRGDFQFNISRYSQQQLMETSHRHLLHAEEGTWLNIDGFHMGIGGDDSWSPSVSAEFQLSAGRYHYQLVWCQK
A short description of experiment [12]: Trypanosoma cruzi growth suppression in host cells – NIH3T3 host cells, beta-gal luminescence, confirmation (AID 2044).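 Further: intracellular parasites grown in NIH/3T3 mouse fibroblasts as host cells; luminescent beta-galactosidase reporter signal from transgenic T. cruzi replicating inside host cells; inhibitors lower the luminescence signal.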 It counts as functional, cell-based.
A short description of experiment [13]: decrease of insulin promoter-GFP reporter – imaging, high-content screening, mouse beta cells (AID 1628). The settings on record: MIN6. It is filed as functional.
The nature of experiment [14]: general cell-killing toxicity readout – plate reader, dry powder samples, cytotoxicity control for PAX8 inhibitor project, dose response (AID 743021). It is filed as functional, cell-based.
The next experiment addresses Paired box protein Pax-8 (Homo sapiens, UniProt Q06710). Kind of experiment: PAX8 transcriptional activity inhibition in RMG-I – RMG-I cells, luciferase, cherry-pick, dose response (AID 687027).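 Further: luciferase reporter driven by Pax8 target thyroperoxidase promoter measured by SteadyGlo luminescence.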 It is filed as functional, cell-based.
The test system of experiment [15] is Streptococcus sp. 'group A'. Put plainly: Streptococcus pyogenes SK(-)GAS viability under kanamycin – luminescence, BacTiterGlo, confirmation, counter-screen for streptokinase expression inhibitor project, dose response (AID 1900). It is filed as functional, organism-based.
Experiment [16] can be described thus: MIN6 cell viability loss – mouse insulinoma, cytotoxicity control, dose response (AID 2122).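 Further: confirmatory high-throughput counterscreen run to flag cytotoxic compounds.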 It counts as functional.
For another experiment, the system named is Streptococcus. Put plainly: GAS UMAA2166 growth inhibition – luminescence, BacTiterGlo, counter-screen for streptokinase expression inhibitor project, dose response (AID 1915).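 Further: potency for reduction of bacterial viability or growth.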 It is filed as functional, organism-based.
Experiment [17] in a line: NIH-3T3 fibroblast cytotoxicity, dose response, cytotoxicity control, cell-based, fluorescence, Alamar Blue, secondary assay (AID 2327).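 Further: NIH-3T3 mouse fibroblasts cultured with fluconazole at 8 µg/mL.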 It is filed as functional.
Experiment [18] can be described thus: fluconazole-exposed Candida albicans growth modulators – fluorescence, retest, confirmation (AID 2467). It is filed as functional, cell-based.
Experiment [19] addresses C-C chemokine receptor type 6 (Homo sapiens, UniProt P51684). Put plainly: antagonism of CCR6 beta-arrestin recruitment – cell-based, luminescent beta-arrestin readout, dose response (AID 504728). It is filed as functional.
For a further experiment, the system named is HeLa. Put plainly: viability loss in HeLa cells – cell-based, 24 h, cherry-picked samples, cytotoxicity control, dose response (AID 504726).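 Further: potency for cytotoxicity as loss of luminescence signal.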 It counts as functional. To be noted: Homo sapiens.
Experiment [20] is described as follows: inhibition of ARNT PAS-B/TACC3 complex formation – biochemical, AlphaScreen, cherry-picked samples, confirmation (AID 651703).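 Further: His-tagged ARNT PAS-B domain paired with GST-TACC3 E629A dimer coactivator fragment; potency of inhibitors that break up the complex and lower AlphaScreen signal.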 It is filed as functional, Homo sapiens.
The target in experiment [21] is T2, Polyadenylate-binding protein 1 (Homo sapiens, UniProt P11940). Kind of experiment: MLLE binding blockers, Cy5 peptide tracer – biochemical, fluorescence polarization, Cy5-PAM2 peptide, secondary, miRNA deadenylation inhibitor project, dose response (AID 602260). It is filed as functional. The settings on record: read-out: IC50_Mean.
T2 sequence (P11940 whole entry): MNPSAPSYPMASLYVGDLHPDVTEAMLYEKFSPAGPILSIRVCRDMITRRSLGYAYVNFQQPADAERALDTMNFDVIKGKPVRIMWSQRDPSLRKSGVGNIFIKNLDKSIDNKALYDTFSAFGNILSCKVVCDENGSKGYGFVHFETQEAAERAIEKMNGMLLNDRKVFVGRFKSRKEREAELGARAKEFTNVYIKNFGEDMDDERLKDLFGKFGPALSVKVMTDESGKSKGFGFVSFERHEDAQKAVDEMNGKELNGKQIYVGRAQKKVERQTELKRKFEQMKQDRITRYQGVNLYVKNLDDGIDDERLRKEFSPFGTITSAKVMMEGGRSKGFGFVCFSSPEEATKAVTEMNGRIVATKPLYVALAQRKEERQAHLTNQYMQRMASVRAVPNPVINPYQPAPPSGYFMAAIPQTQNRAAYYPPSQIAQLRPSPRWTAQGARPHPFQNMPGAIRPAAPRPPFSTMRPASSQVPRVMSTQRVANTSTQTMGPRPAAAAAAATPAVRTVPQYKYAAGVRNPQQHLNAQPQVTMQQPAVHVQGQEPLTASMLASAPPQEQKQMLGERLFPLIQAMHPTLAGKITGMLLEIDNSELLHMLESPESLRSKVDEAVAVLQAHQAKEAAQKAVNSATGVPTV
Experiment [22] can be described thus: viability loss in THP-1 monocytes – THP-1 cells, cytotoxicity control for Vif-APOBEC3G degradation inhibitor project, dose response (AID 1117359). It counts as functional. The settings on record: THP-1.
For experiment [23], the target named is T2, Polyadenylate-binding protein 1. Put plainly: MLLE domain peptide-binding blockers, IC50 – biochemical, fluorescence polarization, FITC-PAM2 peptide, dose response (AID 602259). It is filed as functional. The settings on record: read-out: IC50_Mean.
The target in a further experiment is Protein Rev (Human immunodeficiency virus type 1 group M subtype B (isolate WMJ22)(HIV-1), UniProt P05866). Put plainly: inhibitors of Rev protein–RRE RNA complex – biochemical, protein-RNA interaction, dose response (AID 842). The arrangement: species or system Human immunodeficiency virus 1.
Chain of Protein Rev (P05866 whole entry): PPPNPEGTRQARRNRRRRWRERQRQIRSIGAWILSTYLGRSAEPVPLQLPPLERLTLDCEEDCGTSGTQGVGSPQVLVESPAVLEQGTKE

The source made the active and inactive calls.

Chain of Paired box protein Pax-8 (Q06710 whole entry): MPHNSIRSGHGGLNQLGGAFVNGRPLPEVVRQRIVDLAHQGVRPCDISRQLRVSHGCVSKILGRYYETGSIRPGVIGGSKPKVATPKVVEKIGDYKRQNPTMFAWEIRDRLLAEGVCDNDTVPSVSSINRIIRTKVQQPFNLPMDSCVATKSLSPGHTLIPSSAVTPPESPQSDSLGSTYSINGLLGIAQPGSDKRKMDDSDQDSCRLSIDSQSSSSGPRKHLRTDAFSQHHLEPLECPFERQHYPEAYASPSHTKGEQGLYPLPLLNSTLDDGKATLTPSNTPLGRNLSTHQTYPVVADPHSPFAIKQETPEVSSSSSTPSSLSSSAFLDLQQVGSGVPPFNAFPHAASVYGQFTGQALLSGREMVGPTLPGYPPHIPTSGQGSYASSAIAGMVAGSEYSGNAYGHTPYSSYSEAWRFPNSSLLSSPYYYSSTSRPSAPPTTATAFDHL
Chain of Acyl-homoserine lactone acylase PvdQ (Q9I194 24-193 limits assumed): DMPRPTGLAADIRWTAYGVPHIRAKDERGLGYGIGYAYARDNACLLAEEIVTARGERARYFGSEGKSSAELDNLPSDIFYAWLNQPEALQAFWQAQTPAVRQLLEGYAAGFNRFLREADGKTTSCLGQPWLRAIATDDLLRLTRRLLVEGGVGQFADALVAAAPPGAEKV
Chain of Acyl-homoserine lactone acylase PvdQ (Q9I194 217-762 limits assumed): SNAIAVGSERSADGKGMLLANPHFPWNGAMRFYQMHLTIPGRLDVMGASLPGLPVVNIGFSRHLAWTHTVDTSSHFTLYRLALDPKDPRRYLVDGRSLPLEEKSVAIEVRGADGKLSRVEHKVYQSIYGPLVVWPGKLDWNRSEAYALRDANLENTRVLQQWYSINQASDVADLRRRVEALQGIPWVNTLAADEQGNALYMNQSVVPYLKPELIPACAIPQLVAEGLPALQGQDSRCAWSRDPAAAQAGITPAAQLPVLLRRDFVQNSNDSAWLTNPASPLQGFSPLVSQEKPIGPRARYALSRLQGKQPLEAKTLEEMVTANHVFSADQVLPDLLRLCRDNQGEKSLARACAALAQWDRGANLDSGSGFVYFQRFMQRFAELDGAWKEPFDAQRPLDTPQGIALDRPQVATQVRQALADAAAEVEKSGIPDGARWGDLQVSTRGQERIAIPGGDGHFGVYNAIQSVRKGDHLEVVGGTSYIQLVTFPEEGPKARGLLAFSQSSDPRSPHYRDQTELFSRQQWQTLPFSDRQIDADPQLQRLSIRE
Chain of C-C chemokine receptor type 6 (P51684 whole entry): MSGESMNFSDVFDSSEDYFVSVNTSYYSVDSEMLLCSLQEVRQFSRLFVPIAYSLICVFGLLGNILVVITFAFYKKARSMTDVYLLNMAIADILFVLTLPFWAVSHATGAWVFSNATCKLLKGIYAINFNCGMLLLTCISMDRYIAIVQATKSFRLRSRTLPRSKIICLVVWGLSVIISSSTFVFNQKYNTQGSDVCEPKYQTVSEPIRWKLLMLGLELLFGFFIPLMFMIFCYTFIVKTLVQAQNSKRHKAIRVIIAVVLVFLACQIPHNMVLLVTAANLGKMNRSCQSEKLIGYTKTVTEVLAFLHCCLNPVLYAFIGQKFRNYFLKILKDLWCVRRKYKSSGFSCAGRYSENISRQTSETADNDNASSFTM

Usually AC50 stands for the midpoint of the concentration-response curve, whichever way the signal moves. On to `Cc1cccc(NC(=O)Nc2cc(C)on2)c1`, for which the AC50 in [1] was 7.61 µM (active).
In general, EC50 refers to the concentration needed to bring the measured effect to its halfway point. Regarding `O=C(c1cc(-c2ccccc2Cl)on1)N1CCCC1`, the EC50 (in “cells”; in [2]) was > 67.5 µM (inactive) in each case. The AC50 in experiment [3] was 12.1 µM (active); in experiment [5] it was > 52 µM (inactive); in [6], > 52 µM (inactive); in experiment [7], 7.48 µM (active). In [4], the IC50 is listed as > 39.8 µM (not active).
With `COc1cccc(C(c2cc3c(cc2O)OCO3)N2CCCC2)c1O` (stereo unspecified), the IC50 in experiment [8] is < 2.5 µM (not active).
`Cc1cccc(NC(=O)CCCOc2cc(=O)n(C)c3ccccc23)n1`: the EC50 (in experiment [9]; on Wee1-like protein kinase) was > 49.7 µM (inactive) throughout.
Consider `Cc1ccc(-n2nc(C)c3c2C(Br)C(C)(C)CC3=O)nc1` (stereo unspecified), for which, in experiment [10], the AC50 was 43.3 µM (active).
Turning to `COc1cccc(/C=N/Nc2nc(Nc3ccc([N+](=O)[O-])cc3)nc(N3CCCC3)n2)c1O`, the EC50 is 8.48 µM (active) in experiment [11]; 866 nM (active) in experiment [12]; 3.77 µM (active) in experiment [15]; 12.1 µM (active) in the experiment on Streptococcus; 4.69 µM (active) in experiment [17]; > 38 µM (not active) in experiment [18]. Also, the IC50 at Beta-galactosidase was > 66.6 µM (inactive); in experiment [13], 2.8 µM (active); in experiment [16], 2.71 µM (active); in experiment [19], 1.64 µM (active). The values for the AC50 (in [14]; at Paired box protein Pax-8) were 20.9 µM (active) and 5.65 µM (active), respectively.
The CC50 is the concentration that lowers cell viability or growth by half. With `CN(Cc1cnc2nc(N)nc(N)c2n1)c1ccc(C(=O)NC(CCC(=O)O)C(=O)O)cc1` (stereo unspecified), the AC50 with HeLa was 629 nM (active); in experiment [20], 74.5 µM (active). For the same compound, the IC50 was 52.1 µM (inactive) in [21] and 41.6 µM (inactive) in experiment [23]. In addition, in [22], the CC50 was 230 nM (active).
As for `COc1ccc(Nc2nc(N)nc(CN(C)C3CCCCC3)n2)cc1`, the AC50 in [20] was 90.7 µM (active). Further, the IC50 against Protein Rev is > 79.4 µM (not active).

For the origin of these results see ChEMBL document CHEMBL1201862, “PubChem BioAssay data set” (2004).
